Measurements as given in paper PMC10121968, “Fosgonimeton, a Novel Positive Modulator of the HGF/MET System, Promotes Neurotrophic and Procognitive Effects in Models of Dementia” (Neurotherapeutics, 2022).
Non-standard residues stand in square brackets, D forms with d. Residues, ends and D or L forms follow the SMILES beside them. *: point of attachment. pY = N[C@@H](Cc1ccc(OP(=O)(O)O)cc1)C(=O)O; Hexanoyl = CCCCCC(=O)*; Ahx = NCCCCCC(=O)O

Experiments:
[1] = Fosgonimeton solubility (filtration/HPLC in PBS); assay type: physicochemical; conditions: osmolarity-corrected PBS
Description: Fosgonimeton solubility studies were contracted to GVK Biosciences, Hyderabad, India. Stocks of fosgonimeton were prepared in duplicate at several concentrations in osmolarity-corrected PBS and were vortexed to dissolve into solution. The solutions were filtered through a 0.45-µm filter followed by a 0.22-µm filter to remove insoluble particulates. Pre- and postfiltration aliquots were collected, and their concentration was determined via high-performance liquid chromatography.

[2] = Plasma PK in rats after SC injection; assay type: in vivo, rat; conditions: SC
Description: Four male rats were treated with 10 mg/kg fosgo-AM in DMSO via SC injection. Blood was serially collected at 0.08, 0.25, 0.5, 1, 2, and 4 h after dosing. Plasma was obtained by centrifugation with 2% disodium ethylenediaminetetraacetic acid (EDTA) as an anticoagulant. Plasma samples were precipitated with acetonitrile containing internal standard, and the concentration of fosgo-AM was determined by LC/MS/MS.
This study was conducted as described in the “Fosgo-AM PK in Rats” section with the following changes: animals were given 12 mg/kg fosgonimeton in saline with 0.1% glycine via SC injection, and a dose-linear correction was applied to normalize the dose to 10 mg/kg for comparison with the fosgo-AM study. Sample concentrations of both fosgonimeton and fosgo-AM were determined.

Fosgonimeton PK in mice = assay type: in vivo, mouse; conditions: 0.75 mg/kg SC, first tested time point
Description: Three male BALBc mice were treated with 0.75 mg/kg fosgonimeton in saline with 0.1% glycine via SC injection. Blood was serially collected at 0.25, 0.5, 1, 2, and 4 h after dosing. Plasma was obtained by centrifugation with 2% disodium EDTA as an anticoagulant. Plasma samples were precipitated with acetonitrile containing internal standard, and the concentration of fosgonimeton and fosgo-AM was determined by LC/MS/MS.

[3] = Fosgonimeton CNS distribution in rats; assay type: in vivo, rat; conditions: 12 mg/kg fosgonimeton SC, all brain regions
Description: Three male Sprague Dawley rats per time point were given 12 mg/kg fosgonimeton via SC injection. At 0.16, 0.5, and 1 h after dosing, animals were humanely killed and perfused with chilled saline. Brains were collected and dissected into the following brain regions: whole brain, striatum, olfactory bulb, hippocampus, cerebellum, cerebral cortex, and brainstem. Brain regions were homogenized and the exposures of fosgonimeton and fosgo-AM were determined by LC/MS/MS.

[4] = test system: LPS-induced neuroinflammatory mouse model; assay: LPS-induced cognitive impairment, T-maze spontaneous alternation; assay type: in vivo; conditions: 14 days
Description: All animal manipulations were conducted in accordance with the European Directive 2010/63/UE published in the French decree 2013–118 of February 1, 2013, and approved by an independent government-accredited ethics committee (CEEA 35, NEUROFIT, France). Animals for the study consisted of 90 four- to five-week-old CD-1 mice (Janvier, Le Genest St Isle, France). Mice were group-housed and maintained in a room with controlled temperature (21–22 °C) and reversed 12/12 light/dark cycle. The animals had access to food and water ad libitum.
Mice were sorted into the following experimental groups: saline + vehicle (control), LPS + vehicle (LPS), LPS + 0.1 mg/kg memantine, and LPS + fosgonimeton at 0.125, 0.25, 0.5, 1, or 1.25 mg/kg (LPS + fosgo). On day 0 of the study, all groups received either a single intraperitoneal injection of saline or LPS (0.25 mg/kg). During days 1–14, animals received memantine or fosgonimeton treatment once daily. On day 14, 60 min after the last dosing with test compounds or vehicle, mice were assessed for performance on the T-maze spontaneous alternation task.
The T-maze apparatus was made of gray Plexiglas with a main stem (55 cm × 10 cm × 20 cm) and 2 arms (30 cm × 10 cm × 20 cm) positioned at a 90° angle relative to the main stem. A start box (15 cm × 10 cm) was separated from the main stem by a guillotine door. Horizontal doors were also provided to close specific arms during the “forced-choice” alternation task.
The experimental protocol consisted of a single session, which started with 1 forced-choice trial, followed by 14 “free-choice” trials. In the forced-choice trial, the animal was confined for 5 s in the start arm and was then released while either the left or the right goal arm was blocked by a horizontal door. Animals were allowed to explore the maze, eventually entering the open goal arm and afterward returning to the start position. […] The animal was considered to have entered an arm if it placed all 4 paws in the arm. The session was terminated and the animal was removed from the maze after 14 free-choice trials were performed or 10 min elapsed, whichever occurred first. The apparatus was cleaned between each animal run using 70% ethanol. During the trials, animal handling and the visibility of the operator were controlled to minimize interference during testing.
The percentage of alternations over the 14 free-choice trials was determined for each mouse and was used as an index of working memory performance. This percentage was defined as entry into a different goal arm of the T maze over successive trials (e.g., left–right–left–right) and was calculated using the formula: %Alternations=Number of Alternations/14×100
Additionally, percentage of recovery was calculated by normalizing the control group to 100% and the LPS group to 0% and calculating the respective relative response for each individual animal, as follows: %Recovery=(Individual%alternation-meanLPS%alternation)/(Meancontrol%alternation-meanLPS%alternation)
Data were assessed for normality (Shapiro–Wilk) and homoscedasticity (Brown-Forsythe). One-way ANOVA was performed on the data for spontaneous alternations. Dunnett multiple comparison test was used for post hoc pairwise comparisons with the LPS group. The Kruskal–Wallis test was used for percentage of recovery with Dunn’s multiple comparison post hoc test. A value of p < 0.05 was considered to represent a statistically significant difference.

ERK (Thr202/Tyr204) = assay: Phospho-ERK HTRF assay in HEK293 cells; assay type: cell-based, human; conditions: HEK293, HGF 10 ng/mL, vs no HGF treatment
Description: To determine phosphoactivation status of the intracellular signaling molecules ERK (Thr202/Tyr204) or AKT (Ser473), we used homogenous time-resolved fluorescence (HTRF) kits to assess phosphorylation status based on the energy transfer between donor and acceptor phospho-ERK (pERK) or phospho-AKT (pAKT) antibodies. HTRF kit processing for pERK (Phospho-ERK [Thr202/Tyr204] cellular Advanced kit, #64AERPEG, Cisbio, Codolet, France) and pAKT (Phospho-AKT [Ser473] cellular kit, #64AKSPEG, Cisbio, Codolet, France) were carried out per manufacturer instructions. In brief, HEK293 cells were grown at 37 °C, 5% CO2 in DMEM + 10% FBS until approximately 80% confluent. Cells were seeded in polystyrene-treated 96-well cell culture plates at approximately 50,000 cells/well and cultured overnight in 50 µL serum-free growth media. […] Fluorescence emission at 2 different wavelengths (665 nm and 620 nm) were measured on an Envision plate reader (PerkinElmer, Waltham, Massachusetts), and the HTRF ratio of the acceptor and donor emission signals for each well was calculated as follows: HTRF ratio = (665 nm/620 nm) × 10,000. […] Data were assessed for normality (Shapiro–Wilk) and homoscedasticity (Brown-Forsythe). Statistical significance was determined by one-way analysis of variance (ANOVA) with Tukey’s multiple comparison post-test. […]

MDCK cells = assay: MDCK cell scatter behavior assay; assay type: cell-based, canine; conditions: HGF 40 ng/mL, 24 h
Description: Madin-Darby canine kidney (MDCK, ATCC CCL-34) cells were grown at 37 °C, 5% CO2 in Eagle’s Minimum Essential Medium (EMEM) + 10% FBS in T-75 flasks until 80% confluent. Cells were then plated at 1400 cells/well in black-walled, clear-bottom 96-well plates and grown at 37 °C under 5% CO2 for 24 h. Growth media were replaced by serum-free media for 2 h before treatment. Treatments containing HGF and fosgo-AM were made in serum-free media and applied in quintuplicates for 24 h at 37 °C under 5% CO2. Cells were then fixed in chilled 100% EtOH at 4 °C for 20 min and then stained with wheat germ agglutinin conjugated to CF488 (WGA488, Biotium, 29,022–1, Fremont, California) at […] in phosphate-buffered saline (PBS) for 30 min at RT to visualize whole-cell surfaces. Cultures were then imaged with an iCys instrument (iCyte, Thor Labs, Newton, New Jersey) and analyzed with the ImageJ (National Institutes of Health) particle count feature. Scattering behavior was quantified by normalizing particle counts against total stained area. […] Data were assessed for normality (Shapiro–Wilk) and homoscedasticity (Brown-Forsythe). The statistical difference from HGF alone was determined by one-way ANOVA with Dunnett’s multiple comparison post-test with an alpha value of 0.05 (Prism, GraphPad).

[5] = test system: primary rat hippocampal neurons; assay: Neurite outgrowth assay (beta-III tubulin staining); assay type: cell-based; conditions: HGF alone 5 ng/mL, 4 days, vs vehicle
Description: On day 0, rat hippocampal neurons from newborn pups were isolated and cultured in brain neuronal culture medium (neurobasal medium supplemented with 5% FBS, 2% B-27 supplement, and 0.003% gentamycin) at 37 °C under 5% CO2. At 1 day in vitro (DIV1), cells were transferred to a poly-D-lysine–coated 24-well plate at approximately 10,000 cells/well. Cells were then grown in […] of serum-free medium and treated with the following: 0.1% dimethyl sulfoxide (DMSO; vehicle), 10 nM dihydrotestosterone (positive control), 10 nM fosgo-AM, 1 nM fosgo-AM, 5 ng/ml HGF, or 5 ng/ml HGF + 1 nM fosgo-AM. All treatments contained a final concentration of 0.1% DMSO. For the neurite outgrowth assay, treatment media were refreshed on DIV3, and cells were processed for analysis on DIV4. For the synaptogenesis assay, treatment media were refreshed on DIV3 and DIV6, and cells were processed for analysis on DIV8. Processing for both the neurite outgrowth and the synaptogenesis assays was performed as follows: media were removed, and cells were fixed with 100% methanol for 20 min at RT before methanol was aspirated and each well was washed twice with Dulbecco’s phosphate-buffered saline (DPBS). Cells were permeabilized using 0.02% […] (ThermoFisher, Waltham, Massachusetts) in DPBS for 2 min at RT without shaking, and plates were blocked with 5% bovine serum albumin (BSA) in DPBS for 1 h at RT. Plates were then incubated overnight at 4 °C with gentle shaking with use of beta-III tubulin antibody (ab201740; Abcam, Boston, Massachusetts) to assess neurite outgrowth or with use of 1:500 rabbit anti–synaptobrevin-II antibody (Synaptic Systems, cat# 104 202, Göttingen, Germany) to assess synaptogenesis. After overnight incubation, plates were washed 3 times with DPBS and incubated for 1 h at RT with use of anti–rabbit immunoglobulin G–secondary antibody conjugated to Alexa Fluor 488 (Life Technologies, Carlsbad, California, 1:500). After 5 DPBS washes, coverslips were mounted on slides using fluorescent mounting medium (Golden Bridge International Labs, Bothell, Washington, cat# E19-s). Imaging was performed using the BX43 Olympus microscope driven by the standard “CellSens” software by Olympus. […] Ten images of single cells from a total of 2 assays were analyzed using NeuroJ plug-in for ImageJ to assess neurite outgrowth, as neurite length and the number of branches per neuron were counted for each cell. For the synaptogenesis assay, synaptic count (number of synapses) and synaptic strength (relative abundance of presynaptic vesicles per synapse as measured by synaptobrevin-II fluorescence intensity) were quantified for each cell. Data were assessed for normality (Shapiro–Wilk) and homoscedasticity (Brown-Forsythe). […]

## CCCCCC(=O)N[C@@H](Cc1ccc(OP(=O)(O)O)cc1)C(=O)N[C@H](C(=O)NCCCCCC(N)=O)[C@@H](C)CC [fosgonimeton] (Hexanoyl-[pY]-Ile-[Ahx]-NH2)
[1]
  solubility in aqueous solutions: greater than 70 mg/mL
[2]
  fold higher fosgo-AM Cmax vs equivalent direct dose of fosgo-AM: ~4 fold
  systemic exposure of fosgo-AM vs equivalent direct dose of fosgo-AM: higher systemic exposure
[2]; first tested time point
  time of appearance of active compound fosgo-AM after fosgonimeton: ≤ 5 min
Fosgonimeton PK in mice
  time of appearance of active compound fosgo-AM after fosgonimeton: ≤ 15 min
[3]
  detection in brain regions: undetectable
[4]; 0.25 mg/kg SC once daily
  percentage of recovery (spontaneous alternations): 61.76%
[4]; 0.5 mg/kg SC once daily
  percentage of recovery (spontaneous alternations): 79.40%
[4]; 1 mg/kg SC once daily
  percentage of recovery (spontaneous alternations): 64.70%
[4]; 1.25 mg/kg SC once daily
  percentage of recovery (spontaneous alternations): 64.70%
[4]; 0.25, 0.5, 1 and 1.25 mg/kg SC once daily
  percentage of spontaneous alternations vs LPS group: significantly ameliorated these deficits

## CC12CC3CC(C)(C1)CC(N)(C3)C2 [memantine, reference compound]
[4]; 0.1 mg/kg I.P. once daily
  percentage of spontaneous alternations vs LPS group: significantly prevented LPS-induced cognitive deficits
[4]; positive control, 0.1 mg/kg I.P. once daily
  percentage of recovery (spontaneous alternations): 76.40%

## HGF: Recombinant HGF protein (R&D Systems), ligand of the MET receptor
ERK (Thr202/Tyr204)
  pERK levels: significantly increased pERK versus no HGF treatment
MDCK cells
  cell scattering behavior: significantly increased cell scattering behavior
[5]
  neurite length per cell: no significant differences compared with vehicle
